Test results reported in patent US5629173A, “Methods of use of serine protease variants having peptide ligase activity” (priority 1995, dated 1997).
Residues, ends and D or L forms follow the SMILES beside them.

B1: wild type: wild type subtilisin from Bacillus amyloliquefaciens (subtilisin BPN') (protein, UniProt P00782 108-382, looked up)
Subtilisin BPN': AQSVPYGVSQIKAPALHSQGYTGSNVKVAVIDSGIDSSHPDLKVAGGASMVPSETNPFQDNNSHGTHVAGTVAALNNSIGVLGVAPSASLYAVKVLGADGSGQYSWIINGIEWAIANNMDVINMSLGGPSGSAALKAAVDKAVASGVVVVAAAGNEGTSGSSSTVGYPGKYPSVIAVGAVDSSNQRASFSSVGPELDVMAPGVSIQSTLPGNKYGAYNGTSMASPHVAGAAALILSKHPNWTNTQVRSSLENTTTKLGDSFYYGKGLINVQAAAQ

test system: not listed separately; assay: Esterase activity, hydrolysis of activated ester substrate; assay type: biochemical; details: ratio of the apparent second order rate constants (kcat/KM)
Experimental: The esterase and amidase activities were obtained from initial rate measurements using a Kontron Uvikon 860 spectrophotometer. The assay for esterase activity utilized the substrate s-Ala-Ala-Pro-Phe-Sbz at (25±0.2° C.) in 100 mM Tris-HCl (pH 8.60), 4% (v/v) dimethylsulfoxide, 0.005% (v/v) Tween 80. With the non-cysteine containing proteases, DTNB (Ellman (1959), Arch. Biochem. Biophys., 82, 70-77) was added to a concentration of 37.5 μM to visualize the release of thiolbenzoate upon hydrolysis of the substrate. […] The amidase activities were measured under identical conditions by following the increase in absorbance at 412 nm upon hydrolysis of p-nitroanilide from s-Ala-Ala-Pro-Phe-pNA.

esterase/amidase	Molecule
4.8	B1

molecular target: T1, peptide ligase acylated by s-Ala-Ala-Pro-Phe (Bacillus amyloliquefaciens, UniProt P00782, P332A/S328C); assay: Aminolysis efficiency of di- and tri-amino acid peptide nucleophiles (Table IV); assay type: biochemical; details: not given
T1 construct: made in house
Experimental: Enzymatic ligation of peptides were performed at (25±0.2° C.) in 90 mM Tricine (pH 8.0), 2% (v/v) dimethylacetamide, 0.005% (v/v) Tween 80. The comparison between substrates having different leaving groups was simplified by measuring initial reaction rates at a low substrate concentrations (70-75 μM) and at a higher concentration (1.33 mM) where rates are proportional to kcat/KM and the kcat, respectively (Fersht (1977) in Enzyme Structure and Mechanism, W. H. Freeman & Co. USA). The higher substrate concentration may still be below the KM for some of the substrates, so that values for kcat are less accurate. The aminolysis with di- and tripeptides was performed at low peptide concentrations. The aminolysis rate V=kaminolysis [N][E-Ac]/KN, where [N] is the nucleophile concentration, [E-Ac] is the concentration of acyl-enzyme intermediate and KN is the dissociation constant for the binding of the nucleophile to the acyl-enzyme intermediate (Riechmann and Kasche (1985), Biochem. Biophys. Acta., 830, 164-172). Since KN=[N][E-Ac]/[N·E-Ac] a change in [N] will result in a change in [E-Ac] but at low [N], [E-Ac]>>[N·E-Ac] and kaminolysis /KN (the apparent second order rate constants for the reaction between the different nucleophile and the acyl-enzyme intermediate) may be compared. The concentrations of the peptide nucleophiles, and the calibration of the absorbance data for the different ligation products was obtained from amino acid composition analysis. The rates of peptide ligation were measured at four or five different concentrations for each nucleophile.
Ligation reactions were analyzed by taking aliquots at different times and analyzing the peptide products by C-18 reversed phase HPLC. Peptides were eluted in a gradient of acetonitrile/0.1% TFA in water/0.1% TFA and the absorbance at 214 nm monitored. Amino acid composition analysis was used to confirm both the hydrolysis and aminolysis products and to calibrate the absorbance values. The structures of the hydrolysis and aminolysis products (using the dipeptide Ala-Phe-amide as a nucleophile) were confirmed by mass spectrometrical analysis.

T1 sequence (P00782 108-382 S328C/P332A): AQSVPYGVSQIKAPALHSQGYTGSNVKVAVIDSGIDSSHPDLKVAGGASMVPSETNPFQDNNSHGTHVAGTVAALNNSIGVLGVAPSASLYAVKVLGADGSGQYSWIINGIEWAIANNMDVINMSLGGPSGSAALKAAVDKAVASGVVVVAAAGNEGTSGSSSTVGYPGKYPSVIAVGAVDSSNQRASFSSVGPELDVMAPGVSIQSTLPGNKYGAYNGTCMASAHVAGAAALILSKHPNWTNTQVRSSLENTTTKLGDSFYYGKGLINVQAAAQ

Molecule	faster to aminolyze than Arg-Gly [fold]
N=C(N)NCCC[C@H](N)C(=O)N[C@@H](Cc1ccccc1)C(N)=O [RF, Arg-Phe-amide]	~100

same assay, conditions: compared with NH2-Gly-Phe-amide

Molecule	quality as ligation substrate, in words
NC(=O)CNC(=O)[C@@H](N)Cc1ccccc1 [FG, Phe-Gly-amide] (H-Phe-Gly-NH2)	extremely poor ligation substrates

same assay, conditions: peptides amidated at the carboxy terminus; low peptide concentrations; pH 8.0, 25 C

Molecule	apparent second order rate constants for the reaction of the nucleophile with the acylated peptide ligase, compared
NC(=O)CNC(=O)[C@@H](N)Cc1ccccc1 [FG, Phe-Gly-amide] (H-Phe-Gly-NH2)	0.006
NCC(=O)N[C@@H](Cc1ccccc1)C(N)=O [GF, Gly-Phe-amide] (H-Gly-Phe-NH2)	0.8
N=C(N)NCCC[C@H](N)C(=O)N[C@@H](Cc1ccccc1)C(N)=O [RF, Arg-Phe-amide]	2.0
C[C@H](N)C(=O)N[C@@H](Cc1ccccc1)C(N)=O [AF, Ala-Phe-amide]	1.0
CC(C)C[C@H](N)C(=O)N[C@@H](Cc1ccccc1)C(N)=O [LF, Leu-Phe-amide] (H-Leu-Phe-NH2)	0.3
CC(C)C[C@H](NC(=O)CN)C(N)=O [GL, Gly-Leu-amide]	0.3
C[C@H](NC(=O)CN)C(N)=O [GA, Gly-Ala-amide] (H-Gly-Ala-NH2)	0.1
CC(C)C[C@H](N)C(=O)N[C@@H](Cc1ccccc1)C(=O)N[C@@H](CC(=O)O)C(N)=O [LFD, Leu-Phe-Asp-amide] (H-Leu-Phe-Asp-NH2)	0.3
C[C@H](N)C(=O)N[C@@H](Cc1ccccc1)C(=O)N[C@@H](C)C(N)=O [AFA, Ala-Phe-Ala-amide] (H-Ala-Phe-Ala-NH2)	2.0
N=C(N)NCCC[C@H](N)C(=O)NCC(N)=O [RG, Arg-Gly-amide] (H-Arg-Gly-NH2)	0.04
